# Values quoted from earlier work in patent publication US6528086B2, “Methods and apparatus for drug delivery involving phase changing formulations” (Zars, Inc., priority 1999, dated 2003).
# Test system: tissues
# Conditions: in vivo
structure (smiles),measurement,value
CCCCNc1ccc(C(=O)OCCN(C)C)cc1 [Tetracaine],duration of anesthetic effect compared with lidocaine,longer lasting anesthetic effect on tissues than lidocaine
